Experimental findings from US20240050359A1, “COSMETIC USES OF A HIPPOPHAE RHAMNOIDES CAKE HYDROLYSATE” (BASF Beauty Care Solutions France SAS, priority 2020, published 2024) are described below.

Holding throughout (format): cell-based
One test concerns Human follicles. Nature of the test: Ex vivo hair shaft elongation of cultured follicles. The settings on record: capsaicin (10 μm). The protocol: Materials and method: Human follicles were cultured ex vivo in complete growth medium containing 0.5 μg/ml insulin, and treated with capsaicin […]. The latter molecule is used as an agent causing slowing of follicle growth. A control condition without capsaicin treatment was produced. Capsaicin-sensitized follicles were treated or not with 0.03% (w/v) H. rhamnoides hydrolyzate. Each culture condition was evaluated on […] cultured in isolation (n=10). The follicles were incubated at 37° C. in the presence of 5% CO2. The culture medium was renewed three times a week for approximately 2 weeks. The elongation of the hair shafts of the cultured follicles was obtained from photographs taken on different days. The hair length was evaluated by image analysis (Image J) and presented in μm as a mean±standard error.

The test system of test [1] is fibroblasts from the papilla of human hair follicles. Nature of the test: Amount of DNA in papilla fibroblasts grown as aggregates. As to conditions: capsaicin 10 μM. Here is the method:
Materials and method: A suspension composed of fibroblasts from the papilla of human hair follicles and basal culture medium, containing 0.05% v/v growth factor cocktail and the presence or absence of the H. rhamnoides hydrolyzate to be tested, was centrifuged for 5 minutes at 200×g to form aggregates. Control conditions were produced by adding 0.05% v/v growth factor cocktail (ethanol EtOH control) and adding capsaicin (10 μm) as a cell sensitizer (capsaicin control) to the basal culture medium. The aggregates were incubated at a temperature of 37° C. under controlled atmosphere (5% CO2 and 95% relative humidity). The aggregates were rinsed in buffered saline solution (PBS) and the cells were separated by incubation in a mixture of proteases (collagenase A, trypsin) with EDTA. A portion of the suspended cells was taken up in PBS for flow cytometry analysis. The cell count and autofluorescence are the two parameters measured. Autofluorescence is a direct parameter easily measured and used as a marker of cell senescence ([…] et al. 1982). The cell count is an indirect parameter of the growth potential of the hair follicle. […] These two parameters were measured according to the suppliers' instructions (CyQuant NF Cell proliferation Assay Kit C35006, Invitrogen and Bioluminescence Assay Kit CLS II Roche 11699695001, Sigma-Aldrich).

For test [2] the test system is unchanged. Kind of test: Flow cytometry of papilla fibroblasts grown as aggregates (number, granularity, autofluorescence). As to conditions: capsaicin 10 μM; Control (EtOH) = 100. Here is the method: (§1) Materials and method: A suspension composed of fibroblasts from the papilla of human hair follicles and basal culture medium, containing 0.05% v/v growth factor cocktail and the presence or absence of the H. rhamnoides hydrolyzate to be tested, was centrifuged for 5 minutes at 200×g to form aggregates. Control conditions were produced by adding 0.05% v/v growth factor cocktail (ethanol EtOH control) and adding capsaicin (10 μm) as a cell sensitizer (capsaicin control) to the basal culture medium. The aggregates were incubated at a temperature of 37° C. under controlled atmosphere (5% CO2 and 95% relative humidity). The aggregates were rinsed in buffered saline solution (PBS) and the cells were separated by incubation in a mixture of proteases (collagenase A, trypsin) with EDTA. A portion of the suspended cells was taken up in PBS for flow cytometry analysis. The cell count and autofluorescence are the two parameters measured. Autofluorescence is a direct parameter easily measured and used as a marker of cell senescence ([…] et al. 1982). The cell count is an indirect parameter of the growth potential of the hair follicle. Another portion of cells was used for analysis of the cell DNA content and ATP production rate. These two parameters were measured according to the suppliers' instructions (CyQuant NF Cell proliferation Assay Kit C35006, Invitrogen and Bioluminescence Assay Kit CLS II Roche 11699695001, Sigma-Aldrich).
A general note: Flow cytometry measures light scatter and fluorescence of single cells or particles in a stream.

For test [3] the test system is unchanged. Nature of the test: ATP production by papilla fibroblasts grown as aggregates. As to conditions: capsaicin 10 μM. Here is the method: as §1

Molecules are shown by their SMILES.

`COc1cc(CNC(=O)CCCC/C=C/C(C)C)ccc1O` [Capsaicin, capsaicin]: the “hair elongation MEAN (μm)” value in the test with Human follicles (Day 0) amounted to 0 μm; with Human follicles (Day 6), 806 μm; in the test with Human follicles (Day 8), 861 μm; in the test with Human follicles (Day 11) it was 869 μm; in the test with Human follicles (Day 13), 938 μm; in the test with Human follicles (Day 15), 936 μm. Further, the “amount of DNA % deviation vs control” value in test [1] was −77%. Further, the “amount of DNA MEAN” value in test [1] (EtOH control = 100) was determined as 23. Moreover, in test [2], the “Autofluorescence (%)” value is on record as 235%. Moreover, in test [2], the “Granularity (%)” value was 217%. In addition, in test [2], the “Number of cells (%)” value amounted to 28%. Besides, in test [3], the “ATP production % Activity” value is −76%. Also, the “reduction of the production of ATP relative to the control (ethanol)” value in test [3] turned out to be 76%. Further, in test [3] (EtOH control = 100), the “ATP production MEAN” value is listed as 24.
